Measurements: ChEMBL document CHEMBL5291721, “A preclinical secondary pharmacology resource illuminates target-adverse drug reaction associations of marketed drugs” (Nat Commun, 2023)

Tests used:
Adenosine receptor A3 = molecular target: T1, Adenosine receptor A3 (Homo sapiens, UniProt P0DMS8)
T1 sequence (P0DMS8 whole entry): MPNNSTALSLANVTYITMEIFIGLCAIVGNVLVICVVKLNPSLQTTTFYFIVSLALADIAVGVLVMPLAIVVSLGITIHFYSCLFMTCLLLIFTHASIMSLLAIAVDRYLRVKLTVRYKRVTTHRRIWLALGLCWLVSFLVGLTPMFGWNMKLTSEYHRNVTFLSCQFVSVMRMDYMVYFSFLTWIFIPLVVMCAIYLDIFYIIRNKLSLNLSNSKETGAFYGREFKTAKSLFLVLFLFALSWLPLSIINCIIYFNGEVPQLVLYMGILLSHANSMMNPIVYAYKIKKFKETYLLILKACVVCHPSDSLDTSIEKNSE

[1] = molecular target: T2, Alpha-2A adrenergic receptor (Homo sapiens, UniProt P08913)
T2 sequence (P08913 whole entry): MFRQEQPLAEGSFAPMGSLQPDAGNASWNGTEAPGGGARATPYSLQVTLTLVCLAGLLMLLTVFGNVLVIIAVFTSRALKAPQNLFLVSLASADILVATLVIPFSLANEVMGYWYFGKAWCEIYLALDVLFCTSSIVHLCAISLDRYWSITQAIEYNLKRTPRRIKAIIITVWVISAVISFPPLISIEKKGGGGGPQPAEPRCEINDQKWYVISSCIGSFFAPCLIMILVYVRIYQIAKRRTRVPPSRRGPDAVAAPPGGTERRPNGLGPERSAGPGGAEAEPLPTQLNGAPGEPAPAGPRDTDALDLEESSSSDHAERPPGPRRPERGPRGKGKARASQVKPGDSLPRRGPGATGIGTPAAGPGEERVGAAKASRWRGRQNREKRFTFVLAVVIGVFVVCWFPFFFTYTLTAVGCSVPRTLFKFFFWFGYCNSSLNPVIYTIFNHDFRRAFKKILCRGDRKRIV

[2] = molecular target: T3, Muscarinic acetylcholine receptor M1 (Homo sapiens, UniProt P11229); assay type: functional, cell-based
T3 sequence (P11229 whole entry): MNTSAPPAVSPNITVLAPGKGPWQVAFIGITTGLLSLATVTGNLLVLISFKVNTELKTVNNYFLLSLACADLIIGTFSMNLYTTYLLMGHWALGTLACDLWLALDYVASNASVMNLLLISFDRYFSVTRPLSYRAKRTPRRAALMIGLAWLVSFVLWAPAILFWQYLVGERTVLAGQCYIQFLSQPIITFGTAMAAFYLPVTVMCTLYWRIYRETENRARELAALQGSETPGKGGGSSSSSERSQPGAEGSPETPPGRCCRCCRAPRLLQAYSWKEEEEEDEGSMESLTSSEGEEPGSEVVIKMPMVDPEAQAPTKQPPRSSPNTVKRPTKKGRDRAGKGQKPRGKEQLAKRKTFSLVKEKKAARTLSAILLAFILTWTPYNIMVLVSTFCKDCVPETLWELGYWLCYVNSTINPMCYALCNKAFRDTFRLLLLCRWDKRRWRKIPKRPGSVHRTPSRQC

Prothrombin = Prothrombin (Homo sapiens, UniProt P00734); assay type: functional
Progesterone receptor = molecular target: T4, Progesterone receptor (Homo sapiens, UniProt P06401)
T4 sequence (P06401 whole entry): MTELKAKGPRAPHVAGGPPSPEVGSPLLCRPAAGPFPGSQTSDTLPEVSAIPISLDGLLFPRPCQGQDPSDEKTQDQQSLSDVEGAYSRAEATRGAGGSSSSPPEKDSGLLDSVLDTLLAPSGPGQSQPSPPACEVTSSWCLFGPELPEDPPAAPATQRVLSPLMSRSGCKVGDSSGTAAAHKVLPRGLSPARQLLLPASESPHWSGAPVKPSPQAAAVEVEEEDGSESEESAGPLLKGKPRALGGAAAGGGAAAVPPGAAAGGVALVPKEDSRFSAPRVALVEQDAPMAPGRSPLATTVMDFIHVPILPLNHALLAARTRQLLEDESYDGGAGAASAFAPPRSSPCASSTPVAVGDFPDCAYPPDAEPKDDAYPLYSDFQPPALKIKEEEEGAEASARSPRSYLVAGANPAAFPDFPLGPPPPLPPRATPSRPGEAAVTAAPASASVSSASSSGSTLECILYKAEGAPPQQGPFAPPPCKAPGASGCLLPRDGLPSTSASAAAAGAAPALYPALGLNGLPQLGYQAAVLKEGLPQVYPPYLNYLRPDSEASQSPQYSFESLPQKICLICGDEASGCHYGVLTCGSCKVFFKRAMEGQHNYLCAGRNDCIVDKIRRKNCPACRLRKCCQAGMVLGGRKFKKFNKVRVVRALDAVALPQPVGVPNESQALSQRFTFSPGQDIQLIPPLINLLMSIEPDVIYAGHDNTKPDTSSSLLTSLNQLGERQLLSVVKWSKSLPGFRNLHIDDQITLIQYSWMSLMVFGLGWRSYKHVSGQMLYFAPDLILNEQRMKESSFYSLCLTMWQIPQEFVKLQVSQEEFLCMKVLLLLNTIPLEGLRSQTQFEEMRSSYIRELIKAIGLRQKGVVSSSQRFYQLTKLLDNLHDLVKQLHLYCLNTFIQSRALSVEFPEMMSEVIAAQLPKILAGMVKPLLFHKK

[3] = molecular target: Prostaglandin G/H synthase 1 (Homo sapiens, UniProt P23219); assay type: functional
Sequence of Prostaglandin G/H synthase 1 (P23219 whole entry): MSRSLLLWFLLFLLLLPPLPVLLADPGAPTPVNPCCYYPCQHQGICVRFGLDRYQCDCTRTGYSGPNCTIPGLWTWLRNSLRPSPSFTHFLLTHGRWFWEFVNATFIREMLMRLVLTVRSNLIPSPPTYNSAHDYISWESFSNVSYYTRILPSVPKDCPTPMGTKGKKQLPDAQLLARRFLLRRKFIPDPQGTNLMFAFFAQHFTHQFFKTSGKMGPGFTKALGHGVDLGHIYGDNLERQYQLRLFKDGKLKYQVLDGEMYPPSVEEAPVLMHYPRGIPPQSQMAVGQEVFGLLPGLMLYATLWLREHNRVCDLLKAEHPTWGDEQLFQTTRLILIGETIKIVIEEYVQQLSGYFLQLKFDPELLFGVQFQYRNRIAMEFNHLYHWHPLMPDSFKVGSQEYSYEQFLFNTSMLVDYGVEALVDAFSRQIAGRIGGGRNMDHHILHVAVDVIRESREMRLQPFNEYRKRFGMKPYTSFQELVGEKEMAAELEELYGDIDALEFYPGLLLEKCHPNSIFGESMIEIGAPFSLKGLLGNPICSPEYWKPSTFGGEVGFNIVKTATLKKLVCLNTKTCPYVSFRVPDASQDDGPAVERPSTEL

Thromboxane A2 receptor = molecular target: T5, Thromboxane A2 receptor (Homo sapiens, UniProt P21731); assay type: functional, cell-based
T5 sequence (P21731 whole entry): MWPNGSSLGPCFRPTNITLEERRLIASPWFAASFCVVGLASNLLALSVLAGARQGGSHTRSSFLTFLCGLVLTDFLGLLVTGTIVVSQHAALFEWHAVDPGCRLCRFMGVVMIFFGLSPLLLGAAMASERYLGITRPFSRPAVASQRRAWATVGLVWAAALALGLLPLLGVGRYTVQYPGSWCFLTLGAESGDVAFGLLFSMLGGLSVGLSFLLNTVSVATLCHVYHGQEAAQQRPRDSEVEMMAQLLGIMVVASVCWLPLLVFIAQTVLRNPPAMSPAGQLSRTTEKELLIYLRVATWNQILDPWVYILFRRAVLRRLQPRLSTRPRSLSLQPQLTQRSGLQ
Also: assay procedure not described here.

SMILES | AC50 (Adenosine receptor A3) [µM] | AC50 [1] [µM] | AC50 [2] [µM] | AC50 (Prothrombin) [µM] | AC50 (Progesterone receptor) [µM] | AC50 [3] [µM] | AC50 (Thromboxane A2 receptor) [µM]
C[N+]1(CCCCC[N+]2(C)CCCC2)CCCC1 [PENTOLINIUM] | > 30 | > 30 | > 30 | > 30 | > 30 | > 30 | > 30
Cc1cc(NS(=O)(=O)c2ccc(N)cc2)nc(C)n1 [SULFISOMIDINE] | > 30 | > 30 | > 30 | > 30 | > 30 | > 30 | > 30
CC(=O)Oc1c(C)c(C)c2c(c1C)CC[C@@](C)(CCC[C@H](C)CCC[C@H](C)CCCC(C)C)O2 | > 30 | > 30 | > 30 | > 30 | > 30 | > 30 | > 30
CC(C)(C)NCC(O)COc1cccc2c1SCCC2 (stereo not given) [TERTATOLOL] | > 30 | 6.6 | > 30 | > 30 | > 30 | > 30 | > 30
OB1OCc2cc(F)ccc21 [TAVABOROLE] | > 30 | > 30 | > 30 | > 30 | > 30 | > 30 | > 30
CC(C)(C)C(=O)C(Oc1ccc(Cl)cc1)n1ccnc1 (stereo not given) [CLIMBAZOLE] | 20.2 | > 30 | 10.2 | > 30 | > 30 | > 30 | > 30
CCN(CC)CCOC(=O)C(c1ccccc1)C1CCCCC1 (stereo not given) [DROFENINE] | > 30 | 24.1 | 0.0078 | > 30 | > 30 | > 30 | > 30
O=C(Oc1ccc2c(c1)CCCN2C(=O)C(Cl)Cl)c1ccco1 [QUINFAMIDE] | 25.6 | > 30 | 15.4 | > 30 | > 30 | > 30 | > 30
CC(C)(C)C(=O)OCOC(=O)[C@@H]1N2C(=O)[C@@H](NC(=O)[C@H](N)c3ccccc3)[C@H]2SC1(C)C [PIVAMPICILLIN] | > 30 | > 30 | 23 | > 30 | > 30 | 7.48 | > 30
O=C(Nc1ccc(Cl)cc1)Nc1ccc(Cl)c(Cl)c1 [TRICLOCARBAN] | 2.08 | > 30 | 0.702 | > 30 | > 30 | > 30 | > 30
CCOC(=O)[C@H](CCc1ccccc1)N[C@@H](C)C(=O)N1CC2(C[C@H]1C(=O)O)SCCS2 | > 30 | > 30 | > 30 | > 30 | > 30 | > 30 | > 30
CC[C@@H](C(N)=O)N1CCCC1=O | > 30 | > 30 | > 30 | > 30 | > 30 | > 30 | > 30
CC(C)(C)CC(C)(C)c1ccc(O)c(Cc2ccc(Cl)cc2Cl)c1 [CLOFOCTOL] | 1.12 | > 30 | > 10 | > 30 | 1.15 | 2.56 | > 30
NNc1nnc(NN)c2ccccc12 [DIHYDRALAZINE] | 0.197 | > 30 | > 30 | > 30 | – | 0.344 | > 30
Cc1cc(OP(=O)(O)O)c2ccccc2c1OP(=O)(O)O [MENADIOL SODIUM DIPHOSPHATE] | > 30 | > 30 | > 30 | > 30 | > 30 | > 30 | > 30
CC(=O)c1ccc2c(c1)N(CCCN(C)C)c1ccccc1S2 [ACEPROMAZINE] | > 30 | 0.418 | 0.151 | > 30 | > 30 | > 30 | 13.7
Nc1ccc(S(=O)(=O)c2cnc(N)s2)cc1 [THIAZOLSULFONE] | 13.8 | > 30 | > 30 | > 30 | > 30 | > 30 | > 30
NC1CCN(c2c(F)cc3c(=O)c(C(=O)O)cn(C4CC4)c3c2Cl)C1 (stereo not given) [CLINAFLOXACIN] | > 30 | > 30 | > 30 | > 30 | > 30 | > 30 | > 30
CC[C@H]1CN2CC[C@H]1C[C@H]2[C@H](O)c1ccnc2ccc(OC)cc12 [HYDROQUININE] | > 30 | 3.59 | > 30 | > 30 | > 30 | > 30 | > 30
CC(CNC(=O)c1ccccc1)C(=O)OCC(=O)[C@@]12OC(C)(C)O[C@@H]1C[C@H]1[C@@H]3CCC4=CC(=O)C=C[C@]4(C)[C@@]3(F)[C@@H](O)C[C@@]12C (stereo not given in full) [TRIAMCINOLONE BENETONIDE] | > 30 | > 30 | > 30 | > 30 | > 30 | > 30 | > 30
N[C@H]1C(O)O[C@H](CO)[C@@H](O)[C@@H]1O (stereo not given in full) [GLUCOSAMINE] | > 30 | > 30 | > 30 | > 30 | > 30 | > 30 | > 30
Nc1ccncc1N [AMIFAMPRIDINE] | > 30 | > 30 | > 30 | > 30 | > 30 | > 30 | > 30
CC(=O)OCC(=O)[C@@]1(O)CC[C@H]2[C@@H]3CCC4=CC(=O)C=C[C@]4(C)[C@@]3(Cl)[C@@H](Cl)C[C@@]21C [DICHLORISONE ACETATE] | > 30 | > 30 | > 30 | > 30 | 0.173 | > 30 | > 30
